# Measured values published in US20140357512A1, “HISTONE DEACETYLASE (HDAC) BIOMARKERS IN MULTIPLE MYELOMA” (priority 2013, published 2014).
# Test system: human myeloma cell line MM.1S
# Test: SILAC acetylated-lysine peptide profiling, HDAC inhibitor vs DMSO (light/heavy ratio)
# Assay type: cell-based
# Source text: An embodiment of the invention comprises utilizing the SILAC method in order to quantitate changes in protein expression between two or more populations of cells. The SILAC method is a technique based on mass spectrometry that detects differences in protein abundance among samples using non-radioactive isotopic labeling. The SILAC method is known in the art, and described in detail in Ong et al., “Stable Isotope Labeling by Amino Acids in Cell Culture, SILAC, as a Simple and Accurate Approach to Expression Proteomics”, Molecular & Cellular Proteomics, vol. 1, pp. 376-386 (2002), which is incorporated herein by reference in its entirety.
# Briefly, the SILAC method involves growing two populations of cells in cell culture. The first population of cells is grown in growth media containing normal amino acids (“normal media”). The second population of cells is grown in media lacking a standard essential amino acid (such as lysine), but is then supplemented with a non-radioactive, isotopically labeled form of that essential amino acid (such as lysine labeled with ^13C atoms, rather than normal ^12C atoms), which is called “heavy media”. When the two populations of cells are each growing in the medium, they incorporate the amino acids into all of their proteins. The growth of cells maintained in the heavy media is no different from that in normal media. All peptides containing the heavy amino acids are heavier than their normal counterparts. The cells from each of the two populations of cells are lysed. The lysates from each of the two cell populations are then combined. The combined cell lysates are then analyzed by mass spectrometry. Pairs of chemically identical peptides of different stable isotope composition can be differentiated in a mass spectrometer due to their difference in mass. The ratio of peak intensities in the mass spectrum for such peptide pairs reflects the abundance ratio for the two proteins.
# This example describes SILAC studies that were performed to compare the effects of three different HDAC inhibitors (Compound A, Compound B, and tubastatin A) to a control on a human multiple myeloma cell line. The HDAC inhibitors were also compared amongst themselves to determine differences in their effects.
# A human myeloma cell line MM.1S was grown using either ^12C (light) or ^13C (heavy) lysine containing culture medium. The “heavy” cells were treated with DMSO as the control, and the “light” cells were treated with a single HDAC inhibitor at 37° C. for 6 hours. The heavy and light cells were lysed, and the lysates were mixed in 1:1 ratio and digested with the protease trypsin. The acetylated lysine containing peptides (due to the action of the HDAC inhibitor) in the digested peptide pool were captured by a non-specific anti-acetylated lysine antibody cocktail (the antibodies identify both light and heavy acetylated peptides), and subjected to mass spectrometry analysis in order to identify thousands of individual peptides.
# Thousands of peptides were identified in pairs (^12C and ^13C) due to their known mass differences. The amino acid sequence and quantitative ratio (Light/Heavy) of a given peptide in two differentially treated cell lysates were then determined and annotated with their possible protein (gene) sources.
# As stated above, three HDAC inhibitors (Compound A, Compound B, and Tubastatin A) were used. Thus, the SILAC method was performed three times, with a different HDAC inhibitor compared to a control each time. Accordingly, there are three pairs of quantitative data in the table below, i.e., Compound A:DMSO, Compound B:DMSO, and Tubastatin A:DMSO. A cut-off of 1.30 fold of change (increase or decrease) was then used to determine “changed” or “+” in the table, and any peptides with a fold of change less than 1.3 fold were determined to be “unchanged” or “0” in the table. Those peptides that were not identified were marked as “NA” in the table. […]
smiles,measurement,setting,value
"O=C(CCCCCCNC(=O)c1cnc(N(c2ccccc2)c2ccccc2)nc1)NO [Compound A, 2-(diphenylamino)-N-(7-(hydroxyamino)-7-oxoheptyl)pyrimidine-5-carboxamide]","light to heavy ratio (L/H ratio), log 2 scale, acetylated peptide PEPAK(ac)SAPAPKK (SEQ ID NO: 795)","Histone H2B type 2-E [6], gene HIST2H2BE, drug:DMSO",1.00
same,"light to heavy ratio (L/H ratio), log 2 scale, acetylated peptide K(ac)AVTK(ac)AQK (SEQ ID NO: 794)","Histone H2B type 2-E [17:21], gene HIST2H2BE, drug:DMSO",1.00
same,light to heavy ratio (L/H ratio) of acetylated peptide AVTK(ac)AQK(ac)K (SEQ ID NO: 560),"Histone H2B type 2-E [21:24], gene HIST2H2BE, inhibitor:DMSO",0.40 log 2
same,light to heavy ratio (L/H ratio) of acetylated peptide K(ac)STGGK(ac)APR (SEQ ID NO: 310),"Histone H3.2 [10:15], HIST2H3D, HIST2H3A, HIST2H3C, drug:DMSO",1.00 log 2
same,"light to heavy ratio (L/H ratio), log 2 scale, acetylated peptide K(ac)QLATK(ac)AAR (SEQ ID NO: 796)","Histone H3.2 [19:24], gene HIST2H3D, HIST2H3A, HIST2H3C, drug:DMSO",1.00
same,light to heavy ratio (L/H ratio) of acetylated peptide GK(ac)GGK(ac)GLGK (SEQ ID NO: 311),"Histone H4 [6:9], HIST2H4B, HIST1H4C and other H4 genes, drug:DMSO",1.00 log 2
same,light to heavy ratio (L/H ratio) of acetylated peptide GLGK(ac)GGAK(ac)R (SEQ ID NO: 312),"Histone H4 [13:17], HIST2H4B, HIST1H4C and other H4 genes, drug:DMSO",1.00 log 2
same,light to heavy ratio (L/H ratio) of acetylated peptide GLGK(ac)GGAKR (SEQ ID NO: 313),"Histone H4 [13], HIST2H4B, HIST1H4C and other H4 genes, drug:DMSO",1.00 log 2
same,light to heavy ratio (L/H ratio) of acetylated peptide DGLQNEK(ac)NIVSTPVK (SEQ ID NO: 268),"Hydroxymethylglutaryl-CoA lyase mitochondrial [48], HMGCL, drug:DMSO",0.45 log 2
same,light to heavy ratio (L/H ratio) of acetylated peptide K(ac)[…] (SEQ ID NO: 594),"Hydroxymethylglutaryl-CoA lyase mitochondrial [137], gene HMGCL, inhibitor:DMSO",0.45 log 2
same,L/H ratio of acetylated peptide […](ac)SHR (SEQ ID NO: 56),"IGLV2-14, IGLC2 [208], log 2 scale, drug vs DMSO",0.00
same,"light to heavy ratio (L/H ratio) of acetylated peptide, log 2 scale","IGQGYLIK(ac)DGK (SEQ ID NO: 249), 60S ribosomal protein L3 [294], SNORD43, RPL3",−0.44
same,L/H ratio of acetylated peptide,"IK(ac)[…] (SEQ ID NO: 480), Isoform 2 of Heat shock protein HSP 90-alpha [403], HSP90AA1",0.39 log 2
same,L/H ratio of acetylated peptide,"IVQK(ac)[…] (SEQ ID NO: 489), Death-associated protein 1 [29], DAP",1.00 log 2
same,"light to heavy ratio (L/H ratio), log 2 scale, acetylated peptide ADLIK(ac)QYGR (SEQ ID NO: 798)","Inactive hydroxysteroid dehydrogenase-like protein 1 [64], gene HSDL1, drug:DMSO",1.00
same,"light to heavy ratio (L/H ratio), log 2 scale, acetylated peptide LMK(ac)ICMNEDPAK (SEQ ID NO: 800)","Integrin-linked protein kinase [426], gene ILK, drug:DMSO",1.00
same,light to heavy ratio (L/H ratio) of acetylated peptide HAHGDQYK(ac)ATDFVADR (SEQ ID NO: 574),"Isocitrate dehydrogenase [NADP] mitochondrial [180], gene IDH2, inhibitor:DMSO",0.42 log 2
same,light to heavy ratio (L/H ratio) of acetylated peptide AGTFK(ac)MVFTPK (SEQ ID NO: 606),"Isocitrate dehydrogenase [NADP] mitochondrial [193], gene IDH2, inhibitor:DMSO",0.46 log 2
same,light to heavy ratio (L/H ratio) of acetylated peptide TDFDKNK(ac)IWYEHR (SEQ ID NO: 555),"Isocitrate dehydrogenase [NADP] mitochondrial [282], gene IDH2, inhibitor:DMSO",0.40 log 2
same,light to heavy ratio (L/H ratio) of acetylated peptide AVLIDK(ac)DQSPK (SEQ ID NO: 577),"Isoform 1 of 3-hydroxyisobutyryl-CoA hydrolase mitochondrial [353], gene HIBCH, inhibitor:DMSO",0.43 log 2
same,light to heavy ratio (L/H ratio) of acetylated peptide TSSAFVGK(ac)TPEASPEPK (SEQ ID NO: 598),"Isoform 1 of 26S proteasome non-ATPase regulatory subunit 1 [310], gene PSMD1, inhibitor:DMSO",0.46 log 2
same,light to heavy ratio (L/H ratio) of acetylated peptide […](ac)VVQER (SEQ ID NO: 318),"Isoform 1 of 39S ribosomal protein L47 mitochondrial [144], MRPL47, drug:DMSO",1.00 log 2
same,light to heavy ratio (L/H ratio) of acetylated peptide ATVPK(ac)TEIR (SEQ ID NO: 272),"Isoform 1 of 40S ribosomal protein S24 [37], RPS24, drug:DMSO",0.47 log 2
same,light to heavy ratio (L/H ratio) of acetylated peptide AEEILEK(ac)GLK (SEQ ID NO: 547),"Isoform 1 of 60S ribosomal protein L11 [85], gene RPL11, inhibitor:DMSO",0.39 log 2
same,light to heavy ratio (L/H ratio) of acetylated peptide ISK(ac)EEAMR (SEQ ID NO: 299),"Isoform 1 of 60S ribosomal protein L11 [159], RPL11, drug:DMSO",0.84 log 2
same,light to heavy ratio (L/H ratio) of acetylated peptide AGLVDDFEK(ac)K (SEQ ID NO: 301),"Isoform 1 of ATP synthase subunit d mitochondrial [72], ATP5H, drug:DMSO",0.86 log 2
same,light to heavy ratio (L/H ratio) of acetylated peptide VPVPEDK(ac)[…] (SEQ ID NO: 290),"Isoform 1 of ATP synthase subunit d mitochondrial [85], ATP5H, drug:DMSO",0.66 log 2
same,light to heavy ratio (L/H ratio) of acetylated peptide GK(ac)FGNVYLAR (SEQ ID NO: 537),"Isoform 1 of Aurora kinase C [53], gene AURKC, inhibitor:DMSO",−0.39 log 2
same,light to heavy ratio (L/H ratio) of acetylated peptide VWNYK(ac)LR (SEQ ID NO: 593),"Isoform 1 of Coatomer subunit alpha [81], gene COPA, inhibitor:DMSO",0.45 log 2
same,light to heavy ratio (L/H ratio) of acetylated peptide SLLK(ac)PFCAALLK (SEQ ID NO: 329),"Isoform 1 of Cytoskeleton-associated protein 5 [438], CKAP5, drug:DMSO",0.00 log 2
same,light to heavy ratio (L/H ratio) of acetylated peptide VLGTVK(ac)WFNVR (SEQ ID NO: 515),"Isoform 1 of DNA-binding protein A [96], gene CSDA, inhibitor:DMSO",−0.57 log 2
same,light to heavy ratio (L/H ratio) of acetylated peptide TLK(ac)ALEYVFK (SEQ ID NO: 516),"Isoform 1 of Dedicator of cytokinesis protein 2 [738], gene DOCK2, inhibitor:DMSO",−0.57 log 2
same,"light to heavy ratio (L/H ratio), log 2 scale, acetylated peptide VAFK(ac)YCQK (SEQ ID NO: 775)","Isoform 1 of Dolichyl-phosphate beta-glucosyltransferase [122], gene ALG5, drug:DMSO",1.00
same,"light to heavy ratio (L/H ratio), log 2 scale, acetylated peptide ILSK(ac)LSEETK (SEQ ID NO: 759)","Isoform 1 of E3 UFM1-protein ligase 1 [614], gene UFL1, drug:DMSO",0.91
same,"light to heavy ratio (L/H ratio), log 2 scale, acetylated peptide NEEATK(ac)HLECTK (SEQ ID NO: 785)","Isoform 1 of Fragile X mental retardation syndrome-related protein 1 [207], gene FXR1, drug:DMSO",1.00
same,light to heavy ratio (L/H ratio) of acetylated peptide ELEK(ac)VCNPIITK (SEQ ID NO: 612),"Isoform 1 of Heat shock cognate 71 kDa protein [601], gene HSPA8, inhibitor:DMSO",0.47 log 2
